This is an account of results in ChEMBL document CHEMBL3872275, “Synthesis and antiproliferative activity of 2-chlorophenyl carboxamide thienopyridines” (Bioorg Med Chem Lett, 2017).

A short description of assay [1]: Antiproliferative activity against human HCT116 cells assessed as cell growth at 1 uM after 3 days by thymidine incorporation assay relative to control. It counts as functional. The conditions noted are these: HCT-116, 72 h, read-out: Activity. On the technique in general: Dividing cells build labelled thymidine or BrdU into new DNA.
Assay [2] can be described thus: Antiproliferative activity against human MDA-MB-468 cells assessed as cell growth at 1 uM after 3 days by thymidine incorporation assay relative to control. It counts as functional. The conditions noted are these: MDA-MB-468, 72 h, read-out: Activity.
Assay [3] can be described thus: Antiproliferative activity against human MDA-MB-231 cells assessed as cell growth at 1 uM after 3 days by thymidine incorporation assay relative to control. Type of assay: functional. The conditions noted are these: MDA-MB-231, 72 h, read-out: Activity.
Assay [4] can be described thus: Growth inhibition of human HCT116 cells at 10 uM after 48 hrs by SRB assay relative to control. Type of assay: functional. As to conditions: HCT-116, 48 h, values are per cent of control. A general note: In SRB staining, fixed cells bind dye roughly in proportion to their protein.
Assay [5] in a line: Growth inhibition of human MDA-MB-468 cells at 10 uM after 48 hrs by SRB assay relative to control. It counts as functional. The conditions noted are these: MDA-MB-468, 48 h, values are per cent of control.
Assay [6] in a line: Growth inhibition of human MDA-MB-231 cells at 10 uM after 48 hrs by SRB assay relative to control. Type of assay: functional. As to conditions: MDA-MB-231, 48 h, read-out: GI.
The nature of assay [7]: Antiproliferative activity against human HCT116 cells after 3 days by thymidine incorporation assay. Type of assay: functional, cell-based. The conditions noted are these: HCT-116, 72 h.
Assay [8] in a line: Antiproliferative activity against human MDA-MB-468 cells after 3 days by thymidine incorporation assay. It counts as functional, cell-based. As to conditions: MDA-MB-468, 72 h.
Assay [9] is described as follows: Antiproliferative activity against human MDA-MB-231 cells after 3 days by thymidine incorporation assay. It counts as functional, cell-based. As to conditions: MDA-MB-231, 72 h.
Assay [10] in a line: Antiproliferative activity against human K562 cells after 3 days by thymidine incorporation assay. It counts as functional, cell-based. The conditions noted are these: K562, 72 h.

Structures are written as SMILES.

Take `Nc1c(C(=O)Nc2ccccc2Cl)sc2nc3c(cc12)CCCCCCCC3`: the growth at 1 µM is 91% in assay [1], 78% in [2] and 104% in assay [3].
Regarding `Nc1c(C(=O)Nc2ccccc2Cl)sc2nc3c(cc12)CCCCCC3`, the growth at 1 µM in assay [1] is 71%; in assay [2], 100%; in assay [3], 56%.
As usually defined, the IC50 is the point on the concentration scale where inhibition reaches its midpoint. A high value points to lower potency. Turning to `Nc1c(C(=O)Nc2ccccc2Cl)sc2nc3c(cc12)C(O)CCC3` (stereo not drawn), the values for the growth, % of control at 10 µM in assay [4] and in assay [5] were 30% and 26%, respectively. The inhibition of growth at 10 µM in [6] came out at 58%. The growth at 1 µM stood at 11% in assay [1], 14% in assay [2] and 30% in assay [3]. Besides, the 50% inhibitory concentration (IC50) stood at 616 nM in assay [7], 546 nM in [8], 675 nM in [9] and 431 nM in assay [10].
With `O=c1c2sc3nc4c(cc3c2nnn1-c1ccccc1Cl)CCCCCC4`, the growth at 1 µM came to 90% in [1], 85% in assay [2] and 92% in [3].
As to `O=c1c2sc3nc4c(cc3c2nnn1-c1ccccc1Cl)CCCC4`, the growth, % of control at 10 µM in [4] and in assay [5] was 88% each time. For the same compound, the inhibition of growth at 10 µM in assay [6] was determined as 81%. For the same compound, the growth at 1 µM in assay [1] stood at 99%; in assay [2], 81%; in assay [3] it was 94%.
On to `Nc1c(C(=O)Nc2ccccc2Cl)sc2nc3c(cc12)CCCC3`, for which the values for the growth, % of control at 10 µM in assay [4] and in [5] were 107% and 91%, respectively. Moreover, in assay [6], the inhibition of growth at 10 µM turned out to be 100%. Also, the growth at 1 µM in [1] came out at 94%; in assay [2] it was 95%; in [3], 119%.
Take `O=c1c2sc3nc4c(cc3c2nnn1-c1ccccc1Cl)CCCCC4`: the figures for the growth at 1 µM in [1], in assay [2] and in assay [3] were 99%, 90% and 105%, respectively.
Consider `O=C1CCCc2nc3sc4c(=O)n(-c5ccccc5Cl)nnc4c3cc21`, for which the growth, % of control at 10 µM in [4] came out at 96%; in [5], 86%. Besides, the inhibition of growth at 10 µM in assay [6] was 94%. For the same compound, the growth at 1 µM in assay [1] came out at 97%; in [2], 91%; in [3], 97%.
Consider `Cc1nc2sc3c(=O)n(-c4ccccc4Cl)nnc3c2cc1C(C)O` (stereo not drawn), for which the growth at 1 µM in assay [1] amounted to 100%; in assay [2], 118%; in assay [3], 100%.
`CC(=O)c1cc2c(N)c(C(=O)Nc3ccccc3Cl)sc2nc1C`: the values for the growth at 1 µM in assay [1], in assay [2] and in [3] were 87%, 104% and 100%, respectively.
For the compound `O=c1c2sc3nc4c(cc3c2nnn1-c1ccccc1Cl)CCCCCCCC4`, the growth at 1 µM was 97% in assay [1], 82% in assay [2] and 91% in assay [3].
In the case of `CC(=O)OC1CCCc2nc3sc4c(=O)n(-c5ccccc5Cl)nnc4c3cc21` (stereo not drawn), the growth at 1 µM in [1] was determined as 98%; in [2], 93%; in assay [3], 95%.
The corresponding values for `CC(=O)c1cc2c(nc1C)sc1c(=O)n(-c3ccccc3Cl)nnc12` are 98%, 96% and 103%.
`Nc1c(C(=O)Nc2ccccc2Cl)sc2nc3c(cc12)C(=O)CCC3`: the values for the growth, % of control at 10 µM in assay [4] and in assay [5] were 76% and 25%, respectively. The inhibition of growth at 10 µM in assay [6] turned out to be 70%. Moreover, the figures for the growth at 1 µM in assay [1], in assay [2] and in assay [3] were 99%, 94% and 104%, respectively.
Take `Nc1c(C(=O)Nc2ccccc2Cl)sc2nc3c(cc12)CCCCC3`: the growth at 1 µM is 94% in [1], 81% in assay [2] and 101% in [3].
Regarding `O=c1c2sc3nc4c(cc3c2nnn1-c1ccccc1Cl)C(O)CCC4` (stereo not drawn), the growth, % of control at 10 µM in assay [4] stood at 102%; in assay [5] it was 91%. Besides, the inhibition of growth at 10 µM in assay [6] was 86%. Moreover, the growth at 1 µM in [1] stood at 96%; in assay [2], 80%; in [3] it was 91%.
For the compound `Cc1nc2sc(C(=O)Nc3ccccc3Cl)c(N)c2cc1C(C)O` (stereo not drawn), the growth at 1 µM came to 97% in assay [1], 96% in assay [2] and 108% in assay [3].
The corresponding values for `CC(=O)OC1CCCc2nc3sc4c(=O)n(-c5ccccc5Cl)c(C)nc4c3cc21` (stereo not drawn) are 92%, 64% and 82%.
In the case of `CC(=O)OC1CCCc2nc3sc(C(=O)Nc4ccccc4Cl)c(N)c3cc21` (stereo not drawn), the growth at 1 µM in assay [1] worked out at 3%; in assay [2] it was 7%; in [3] it was 10%. The IC50 in assay [7] was found to be 184 nM; in [8], 181 nM; in [9], 201 nM; in assay [10], 192 nM.
